{
  "source": "patent US20180344715A1",
  "about": "“WNT/BETA-CATENIN SIGNAL TRANSDUCTION INHIBITORS AND THEIR USE IN TREATMENT OR PREVENTION OF DISEASES AND CONDITIONS LINKED WITH SAID TRANSDUCTION” (BERGEN TEKNOLOGIOVERFORING AS, priority 2015, published 2018)",
  "key": {"Wnt/β-catenin signaling": {"system": "Wnt/β-catenin signaling", "test": "TOPFlash reporter assay in 293FT cells", "format": "cell-based, human", "settings": "1 μM 6BIO together with drug at indicated concentrations, 24 hours", "experimental": "TOPFlash assay was performed in 96-well plate. For each well, 293T cells were transfected with 0.22 μg TOPFlash (or FOPFlash with mutant TCF binding sites) and 0.02 μg pRL-SV40P using lipofectamine 3000. For co-transfection with other plasmids, 0.1 μg additional DNA was used. […] The luciferase activity was measured 24 hours later by using Dual-Glo® Luciferase Assay System (Promega, E2940) according to the recommended protocol. The TOPFlash or FOPFlash activity was normalized to Renilla luciferase signals.\nTOPFlash assay was performed as described above. Briefly, for each well of a 96-well plate 293FT cells were transfected with 0.22 μg TOPFlash (or FOPFlash with mutant TCF binding sites) and 0.02 μg pRL-SV40P using lipofectamine 3000. For co-transfection with other plasmids, 0.1 μg additional DNA was used. Four hours after transfection, 293FT cells were treated with DMSO, 1 μM 6B10 and 1 μM 6B10 together with pazopanib, orlistat and topotecan at varying concentrations for 24 hours. The luciferase activity was then measured using Dual-Glo® Luciferase Assay System (Promega, E2940) according to the recommended protocol. The TOPFlash or FOPFlash activity was normalized to Renilla luciferase signals."}, "[1]": {"system": "Wnt signals (TCF-GFP reporter)", "test": "TCF-GFP expression assay in transgenic zebrafish embryos", "format": "in vivo", "settings": "embryos treated for 2 days", "description": "Transgenic zebrafish harboring Tcf/Lef-miniP:dGFP reporter (line isi04) was obtained from National BioResource Project Zebrafish, Japan. Fish were kept under standard conditions and treated humanely in accordance with approved Institutional Animal Care and Use Committee of University of Bergen. For embryo experiments, embryos at 6 hpf (hours post fertilization) were cultured in 6-well plates (20 embryos per well) at 28° C. Embryos were treated with indicated chemicals and water was replenished daily. […] For TCF-GFP expression assay, embryos at 3 dpf were examined under fluorescence microscope. In both assays embryos that died during treatment were excluded from assessment."}, "SW480 cells": {"system": "SW480 cells", "test": "Soft agar colony-formation assay, SW480", "format": "cell-based", "settings": "10 days", "experimental": "(§1) The soft agar colony-formation assay was performed using the CellTransformation Assays kit (catalog no. CBA-130; Cell Biolabs, Inc.) according to the recommended protocol. […] Medium containing drugs was replaced every 3 d. For the clonogenic assay, positively transfected cells (wild-type and mutant GFP-SHPRH and control GFP) were enriched by FACS and were seeded in six-well plates at a density of 3,000 cells per well. Medium was changed every 3 d. On the last day colony growth was quantified by crystal violet staining and measurement of OD at 590 nm."}, "HCT116 cells [2]": {"system": "HCT116 cells", "test": "Soft agar colony-formation assay, HCT116", "format": "cell-based", "settings": "10 days", "experimental": "as §1"}, "HCT116 cells [3]": {"system": "HCT116 cells", "test": "EdU label release assay, HCT116", "format": "cell-based", "settings": "HCT116, 5 μM, 3 days", "experimental": "(§2) Two days later, cells were seeded singly onto 12 mm glass coverslips in 24-well plates. One day after, EdU was detected using the Click-iT® Plus EdU Alexa Fluor 488 Imaging Kit (Life Technologies, C10637) according to the manufacturer's protocol. For double staining of EdU and other proteins, the EdU stained cells were further used for immunofluorescence staining as described above. Intensity of EdU staining in paired cells were quantified by Photoshop CS6 software, unequal EdU distribution was considered when paired cells had intensity ratio higher than 2."}, "RKO cells": {"system": "RKO cells", "test": "EdU label release assay, RKO", "format": "cell-based", "settings": "5 μM, 3 days", "experimental": "as §2"}, "β-catenin": {"system": "β-catenin", "test": "In vivo ubiquitination assay in SW480 cells", "format": "cell-based", "settings": "SW480, with proteasome inhibitor MG132, 6 hours", "experimental": "Cells were harvested and re-suspended with 100 μl ice cold TBS (50 mM Tris-HCL pH 8.0, 150 mM NaCl) containing 2 μM N-Ethylmaleimide crystalline that was supplemented to all the following buffers. After adding 120 μl TBS containing 2% SDS and mixing quickly, cells were heated at 98° C. for 10 minutes and placed immediately on ice for 5 minutes. Cell lysates were incubated with 1.8 ml TBS containing 1% Triton X-100 and 3 μg antibody (β-catenin ab22656, clone 12F7, Abcam; SHPRH, ab80129, Abcam), at 4° C. overnight followed by incubation with 100 μl Protein G beads (Life technologies, 10004D) at 4° C. for 1 hour on rotator. Beads were collected with Magnet and serially washed once with 1 ml TBS containing 1% Triton X-100/0.1% SDS, twice with 1 ml TBS containing 0.5M LiCl and once with 1 ml TBS containing 1% Triton X-100. Following addition of 80 μl 2% SDS sample buffer containing 10 mM DTT (Sigma, D9779), the beads were boiled at 98° C. for 5 minutes and collected with Magnet, the supernatant was analyzed by Western blotting."}, "SHPRH": {"target": "T1, SHPRH (Homo sapiens, UniProt Q149N8)", "T1 construct": "endogenous in cells; host or cells: SW480", "T1 sequence (Q149N8 whole entry)": "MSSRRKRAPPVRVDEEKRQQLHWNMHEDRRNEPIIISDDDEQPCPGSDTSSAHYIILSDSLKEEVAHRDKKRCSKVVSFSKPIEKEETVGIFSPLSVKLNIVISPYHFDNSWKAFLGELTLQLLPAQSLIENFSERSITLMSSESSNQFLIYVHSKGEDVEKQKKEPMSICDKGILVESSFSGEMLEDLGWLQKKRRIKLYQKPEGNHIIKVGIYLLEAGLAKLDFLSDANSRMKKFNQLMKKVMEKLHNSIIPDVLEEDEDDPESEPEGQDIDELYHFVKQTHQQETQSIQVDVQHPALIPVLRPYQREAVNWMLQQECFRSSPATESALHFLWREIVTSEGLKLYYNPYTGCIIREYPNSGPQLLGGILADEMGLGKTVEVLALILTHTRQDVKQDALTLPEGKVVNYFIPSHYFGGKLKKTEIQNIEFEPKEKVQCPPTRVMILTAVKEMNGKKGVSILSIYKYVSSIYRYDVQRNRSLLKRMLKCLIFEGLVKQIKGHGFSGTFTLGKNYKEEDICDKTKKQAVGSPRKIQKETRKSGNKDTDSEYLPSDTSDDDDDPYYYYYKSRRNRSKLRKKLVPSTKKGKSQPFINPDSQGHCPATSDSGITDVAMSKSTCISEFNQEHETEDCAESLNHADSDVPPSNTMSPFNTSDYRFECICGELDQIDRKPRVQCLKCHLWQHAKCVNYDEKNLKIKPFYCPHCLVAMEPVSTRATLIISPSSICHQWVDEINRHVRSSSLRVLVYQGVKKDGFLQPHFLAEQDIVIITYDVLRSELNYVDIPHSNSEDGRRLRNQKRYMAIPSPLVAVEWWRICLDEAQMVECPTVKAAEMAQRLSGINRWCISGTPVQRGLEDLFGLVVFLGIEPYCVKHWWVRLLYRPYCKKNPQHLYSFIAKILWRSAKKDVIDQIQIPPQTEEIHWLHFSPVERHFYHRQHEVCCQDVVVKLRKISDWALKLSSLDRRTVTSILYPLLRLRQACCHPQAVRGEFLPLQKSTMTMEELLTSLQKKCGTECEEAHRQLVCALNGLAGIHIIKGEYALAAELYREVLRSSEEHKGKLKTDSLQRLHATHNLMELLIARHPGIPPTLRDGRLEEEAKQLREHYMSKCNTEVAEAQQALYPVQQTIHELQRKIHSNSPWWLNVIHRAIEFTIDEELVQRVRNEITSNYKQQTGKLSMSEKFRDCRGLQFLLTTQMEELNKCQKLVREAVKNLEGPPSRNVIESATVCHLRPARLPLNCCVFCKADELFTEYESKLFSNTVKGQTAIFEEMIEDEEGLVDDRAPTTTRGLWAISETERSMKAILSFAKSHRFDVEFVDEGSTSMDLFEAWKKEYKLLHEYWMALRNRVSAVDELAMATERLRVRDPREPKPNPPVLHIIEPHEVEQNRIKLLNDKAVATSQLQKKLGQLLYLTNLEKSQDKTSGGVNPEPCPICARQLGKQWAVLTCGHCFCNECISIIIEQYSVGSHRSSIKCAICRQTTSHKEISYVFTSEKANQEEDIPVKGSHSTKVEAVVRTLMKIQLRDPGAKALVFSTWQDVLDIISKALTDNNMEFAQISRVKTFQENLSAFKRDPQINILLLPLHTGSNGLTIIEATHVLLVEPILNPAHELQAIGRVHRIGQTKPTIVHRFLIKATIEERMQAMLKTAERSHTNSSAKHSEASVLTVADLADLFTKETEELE", "test": "Cellular thermal shift assay (CETSA), SHPRH", "format": "binding", "settings": "SW480, 10 μM", "experimental": "CETSA in intact cells was performed according to the protocol previously described (Martinez Molina, D. et al., 2013, Science 341, 84-87). Briefly, SW480 cells were seeded equally in 2 T75 flasks and allowed to reach 80% confluence one day after. […] After trypsinization and PBS wash, cells were resuspended in 450 μl PBS containing freshly added protease inhibitors and equally divided between 7 tubes. Cells in each tube were heated at indicated temperatures for 3 minutes and kept at room temperature for 3 minutes. Heated cells were lysed by 3 cycles of freezing in liquid nitrogen (1 minute) and thawing in room temperature water (1 minute). The cell lysates were centrifuged at 20,000 g for 20 minutes at 4° C. The soluble fractions were isolated for Western blotting analysis."}, "Wnt target genes": {"system": "Wnt target genes", "test": "RT-PCR of Wnt target genes in 293FT cells", "format": "cell-based, human", "settings": "24 hours", "from_the_text": "Reverse transcription (RT) and real-time quantitative PCR (qPCR) were done as previously described (Ke, X. S. et al., 2011, Exp Cell Res 317, 234-247). For qPCR using TagMan Universal PCR Master Mix (Life technologies, 4304437), TagMan assays used for human AXIN2 (Hs00610344_m1), LEF1 (Hs01547250_m1), BMP4 (Hs03676628_s1), CTNNB1 (Hs01076483_m1), VEGFR1 (Hs01052961_m1), MED23 (Hs00606608_m1), SHPRH (Hs00542737_m1) and ACTB1 (Hs99999903_m1) were obtained from Life technologies. For RT-PCR using RT^2 SYBR Green/ROX PCR Master Mix (QIAGEN, 330520), primer oligos were made by Eurogentec (Liege, Belgium)."}},
  "data": [
    {"smiles": "CNC(=O)c1ccccc1Sc1ccc2c(/C=C/c3ccccn3)n[nH]c2c1", "note": "[axitinib, N-Methyl-2-[[3-[(E)-2-pyridin-2-ylethenyl]-1H-indazol-6-yl]sulfanyl]benzamide]", "values": [
      {"measurement": "TOPFlash activity normalized to Renilla luciferase activity", "setting": "Wnt/β-catenin signaling", "result": "dose dependently inhibits"},
      {"measurement": "TCF-GFP expression in the midbrain/hindbrain boundary and fin mesenchyme", "setting": "[1]", "result": "decreased"},
      {"measurement": "colony growth", "setting": "SW480 cells", "result": "strongly and dose-dependently inhibited"},
      {"measurement": "colony growth", "setting": "HCT116 cells [2]", "result": "strongly and dose-dependently inhibited"},
      {"measurement": "EdU ACD", "setting": "HCT116 cells [3]", "result": "increased significantly"},
      {"measurement": "EdU ACD", "setting": "RKO cells", "result": "pre-treatment with 6B10 was required for EdU ACD induction"},
      {"measurement": "ubiquitination of β-catenin", "setting": "β-catenin", "result": "increased its ubiquitination"},
      {"measurement": "direct binding in intact living cells", "setting": "SHPRH", "result": "confirmed"},
      {"measurement": "mRNA levels of Wnt target genes", "setting": "Wnt target genes", "result": "decreases"}
    ]}
  ]
}
